In patent US9624247B2, “Pyrazolo-pyrrolidin-4-one derivatives as bet inhibitors and their use in the treatment of disease” (NOVARTIS AG, priority 2013, dated 2017):
Read-outs that look alike come from different tables or passages of the source.

What was measured:
MV-4-11 cells = assay: Cell growth inhibition assay (CellTiter-Glo), MV-4-11; format: cell-based, human; conditions: MV-4-11, 4 days; for GI50: Homo sapiens, MV4-11, 96 h, half-maximal growth inhibition; for MV-4-11 TGI: total growth inhibition
Description: (§1) Cell Growth Inhibition Assay
(§2) The human leukemia cell lines MV-4-11, THP-1 and K-562 were employed to characterize the effect of BET inhibitors on cellular proliferation and viability. Cells were obtained from the American Type Culture Collection (ATCC) and cultured at 37° C. in a humidified 5% CO2 incubator in the following media: MV-4-11: DMEM high glucose (Animed #1-26F01-I), 10% FCS (Animed #2-01F26-I), 4 mM L-Glutamine (Animed #5-10K50), 1 mM Sodium Pyruvate (Animed #G03625P), lx Penicillin-Streptomycin (Animed #F12478P); K-562: Iscove's MEM (Animed #1-28F16-I), 10% FCS (Animed #2-01F26-I), 4 mM L-Glutamine (Animed #5-10K50), 1× Penicillin-Streptomycin (Animed #F12478P); THP-1: RPMI-1640 (Animed #1-41F01-I), 10% FCS (Animed #2-01F26-I), 2 mM L-Glutamine (Animed #5-10K50), 10 mM HEPES (Animed #5-31F100), 1 mM Sodium Pyruvate (Animed #G03625P), 1× Penicillin-Streptomycin (Animed #F12478P). The AML lines MV-4-11 and THP-1 are very sensitive to BET inhibitors and show massive cell death upon BET inhibition (Zuber et al., Nature, 478 (2011), 524-8). Compound-mediated suppression of cell proliferation/viability was assessed by quantification of cellular ATP levels using the CellTiter-Glo (CTG) reagent (Promega). Briefly, cells were seeded in 20 μl fresh medium into 384-well plates, followed by addition of 5 μl medium containing compound dilutions at 5-fold their final intended concentration. Dose-response effects were assessed by 3-fold serial dilutions of the test compound, starting at 10 μM. Following incubation of the cells for 4 days at 37° C. and 5% CO2, the effect of inhibitors on cell viability was quantified following addition of 20 μl CTG and luminescence quantification (integration time: 100 ms) as per vendor manual, using a correspondingly equipped Tecan M200 multi-mode platereader (TECAN, Switzerland). For data analysis, the assay background value determined in wells containing medium, but no cells, was subtracted from all data points. To enable differentiation of cytotoxic from cytostatic compounds, the number of viable cells is assessed relative to that observed at the time of compound addition using a separate cell plate (day 0). The effect of a particular test compound concentration on cell proliferation/viability is expressed as percentage of the background- and day 0-corrected luminescence reading obtained for cells treated with vehicle only (DMSO, 0.1% final concentration), which is set as 100%, whereas that luminescence reading for wells containing medium is set as −100%. Compound concentrations leading to half-maximal (IC50) and total growth inhibition (TGI) were determined using standard four parameter curve fitting.

THP-1 cells = assay: Cell growth inhibition assay (CellTiter-Glo), THP-1; format: cell-based, human; conditions: THP-1, 4 days; for GI50: Homo sapiens, 96 h, half-maximal growth inhibition; for THP-1 TGI: total growth inhibition
Description: as §1, §2

K-562 cells = assay: Cell growth inhibition assay (CellTiter-Glo), K-562; format: cell-based, human; conditions: K-562, 4 days; for GI50: Homo sapiens, K562, 96 h, half-maximal growth inhibition; for K-562 TGI: total growth inhibition
Description: as §1, §2

[1] = target: CREBBP bromodomain (His-CREBBP(1081-1197)) (Homo sapiens (Human), UniProt Q92793); assay: AlphaScreen in-vitro binding assay for CREBBP
Chain of CREBBP bromodomain (His-CREBBP(1081-1197)) (Q92793 1081-1197): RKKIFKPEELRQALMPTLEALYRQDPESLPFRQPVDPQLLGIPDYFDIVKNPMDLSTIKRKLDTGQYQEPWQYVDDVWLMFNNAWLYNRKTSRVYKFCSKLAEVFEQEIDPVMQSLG
Description: AlphaScreen In-Vitro Binding Assay for CREBBP
In order to assess bromodomain selectivity, we set up a binding assay using the bromodomain encoded by the CREBBP gene. […] Reactions were incubated at 30° C. for 35 minutes. Subsequently 4.5 μl per well detection mix (50 mM HEPES, pH 7.5, 0.005% Tween20, 0.02% BSA, 150 mM NaCl, 45 μg/ml Ni-chelate acceptor beads, 45 μg/ml streptavidin-donor beads) (Perkin Elmer)) were added. After 60 minutes incubation at room temperature, plates were measured in a Perkin Elmer EnVision multilabel reader. IC50 values were determined from percent inhibition values at different compound concentrations by non-linear regression analysis.
(§3) Preparation of Compound Dilutions
(§4) Test compounds were dissolved in DMSO (10 mM) and transferred into 1.4 mL flat bottom or V-shaped Matrix tubes carrying a unique 2D matrix. The stock solutions were stored at […] if not used immediately. For the test procedure the vials were defrosted and identified by a scanner whereby a working sheet was generated that guided the subsequent working steps. Compound dilutions were made in 96 well plates. This format enabled the assay of maximally 40 individual test compounds at 8 concentrations (single points) including 4 reference compounds, if desired (known BET inhibitors from the prior art, for this and other assays of the type disclosed herein). The dilution protocol included the production of “pre-dilution plates”, “master plates” and “assay plates”.
(§5) Pre-dilution plates: 96 polypropylene well plates were used as pre-dilution plates. A total of 4 pre-dilution plates were prepared including 10 test compounds each on the plate positions A1-A10, one standard compound at A11 and one DMSO control at A12. All dilution steps were done on a HamiltonSTAR robot.
(§6) These plates were used directly for the assay which was performed in a total volume of 13.55 μL.

BRD2 (His-Brd2(60-472)) = BRD2 (His-Brd2(60-472)) (Homo sapiens (Human), UniProt P25440); assay: TR-FRET in-vitro binding assay for BRD2; conditions: acetyl-histone H4 peptide
Chain of BRD2 (His-Brd2(60-472)) (P25440 60-472): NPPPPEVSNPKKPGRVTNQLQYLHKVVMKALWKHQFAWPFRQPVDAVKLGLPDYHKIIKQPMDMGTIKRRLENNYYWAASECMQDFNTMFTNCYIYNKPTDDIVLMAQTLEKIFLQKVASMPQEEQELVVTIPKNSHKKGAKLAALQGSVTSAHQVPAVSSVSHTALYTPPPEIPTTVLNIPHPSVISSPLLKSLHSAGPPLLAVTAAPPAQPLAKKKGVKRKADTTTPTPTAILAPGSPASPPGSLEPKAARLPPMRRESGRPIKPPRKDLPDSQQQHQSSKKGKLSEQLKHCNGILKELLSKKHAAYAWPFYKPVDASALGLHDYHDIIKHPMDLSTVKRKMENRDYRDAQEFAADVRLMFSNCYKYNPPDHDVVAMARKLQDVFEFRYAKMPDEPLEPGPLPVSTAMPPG
Description: (§7) TR-FRET In-Vitro Binding Assays for BRD2, BRD3, and BRD4:
(§8) All assays were performed in 384 well microtiter plates. Each assay plate contained 8-point serial dilutions for 40 test compounds, plus 16 high- and 16 low controls. Liquid handling and incubation steps were done on an Innovadyne Nanodrop Express equipped with a robotic arm (Thermo CatX, Perkin Elmer/Caliper Twister II) and an incubator (Liconic STX40, Thermo Cytomat 2C450). The assay plates were prepared by addition of 50 nl per well of compound solution in 90% DMSO HummingBird nanodispenser (Zinsser Analytic). The assay was started by stepwise addition of 4.5 μl per well of bromo domain protein (50 mM HEPES, pH 7.5, 0.005% Tween20, 0.1% BSA, 50 mM NaCl, 45 nM His-Brd2(60-472) or 45 nM His-Brd3(20-477) or 45 nM His-Brd4(44-477) all proteins produced in-house) and 4.5 μl per well of peptide solution (50 mM HEPES, pH 7.5, 0.005% Tween20, 0.1% BSA, 50 mM NaCl, 60 nM acetyl-histone H4 (AcK 5, 8, 12, 16) (Biosyntan GmbH)). Reactions were incubated at 30° C. for 35 minutes. […] After 35 minutes incubation at 30° C., plates were measured in a Perkin Elmer EnVision multilabel reader. Concentrations causing 50% inhibition (IC50 values) were determined from percent inhibition values at different compound concentrations by non-linear regression analysis.
as §3, §4, §5
(§9) Master plates: 30 μL of individual compound dilutions including standard compound and controls of the 4 “pre-dilution plates” were transferred into a 384 “master plate” including the following concentrations 10000, 3003, 1000, 300, 100, 30, 10 and 3 μM, respectively in 90% of DMSO.
(§10) Assay plates: Identical “assay plates” were then prepared by pipetting 50 nL each of compound dilutions of the “master plates” into 384-well “assay plates” by means of a HummingBird 384-channel dispenser. These plates were used directly for the assay which was performed in a total volume of 13.55 μL. This led to a final compound concentration of 37, 11, 3.7, 1.1, 0.37, 0.11, 0.037 and 0.011 μM and a final DMSO concentration of 0.37% in the assay.

BRD4 (His-Brd4(44-477)) = BRD4 (His-Brd4(44-477)) (Homo sapiens (Human), UniProt O60885); assay: TR-FRET in-vitro binding assay for BRD4; conditions: acetyl-histone H4 peptide
Description: as §7, §8, §3, §4, §5, §9, §10

BRD3 (His-Brd3(20-477)) = BRD3 (His-Brd3(20-477)) (Homo sapiens (Human), UniProt Q15059); assay: TR-FRET in-vitro binding assay for BRD3; conditions: acetyl-histone H4 peptide
Chain of BRD3 (His-Brd3(20-477)) (Q15059 20-477): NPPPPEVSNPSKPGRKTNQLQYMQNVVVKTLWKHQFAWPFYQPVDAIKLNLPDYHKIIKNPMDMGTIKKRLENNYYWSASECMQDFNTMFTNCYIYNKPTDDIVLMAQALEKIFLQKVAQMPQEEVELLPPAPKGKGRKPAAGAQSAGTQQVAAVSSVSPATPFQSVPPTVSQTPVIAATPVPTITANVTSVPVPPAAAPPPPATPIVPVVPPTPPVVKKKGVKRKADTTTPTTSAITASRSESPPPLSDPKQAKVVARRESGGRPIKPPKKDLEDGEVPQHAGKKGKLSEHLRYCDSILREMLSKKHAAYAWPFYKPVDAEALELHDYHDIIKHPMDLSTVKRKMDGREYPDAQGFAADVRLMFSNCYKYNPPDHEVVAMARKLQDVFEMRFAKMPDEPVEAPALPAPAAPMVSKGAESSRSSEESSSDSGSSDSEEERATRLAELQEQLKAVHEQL
Description: as §7
All assays were performed in 384 well microtiter plates. Each assay plate contained 8-point serial dilutions for 40 test compounds, plus 16 high- and 16 low controls. Liquid handling and incubation steps were done on an Innovadyne Nanodrop Express equipped with a robotic arm (Thermo CatX, Perkin Elmer/Caliper Twister II) and an incubator (Liconic STX40, Thermo Cytomat 2C450). The assay plates were prepared by addition of 50 nl per well of compound solution in 90% DMSO HummingBird nanodispenser (Zinsser Analytic). […] Reactions were incubated at 30° C. for 35 minutes. […] After 35 minutes incubation at 30° C., plates were measured in a Perkin Elmer EnVision multilabel reader.
as §3, §4, §5, §6

[2] = AlphaScreen, acetyl-histone H4 peptide, read-out: CREBBP IC50

SMILES	GI50 (MV-4-11 cells)	MV-4-11 TGI (MV-4-11 cells)	GI50 (THP-1 cells)	THP-1 TGI (THP-1 cells)	GI50 (K-562 cells)	K-562 TGI (K-562 cells)	IC50 [1, 2]	IC50 (BRD2 (His-Brd2(60-472)))	IC50 (BRD4 (His-Brd4(44-477)))	IC50 (BRD3 (His-Brd3(20-477)))	IC50 [1]
Cc1cc(N2C(=O)c3c(C4CC4)nn(C)c3C2c2ccc(Cl)cc2)cc2c1nnn2C (racemic) [Example 8, 6-(4-chlorophenyl)-3-cyclopropyl-5-(1,4-dimethyl-1H-benzo[d][1,2,3]triazol-6-yl)-1-methyl-5,6-dihydropyrrolo[3,4-c]pyrazol-4(1H)-one]	4.71 nM	9.53 nM	7.29 nM	17.6 nM	24.8 nM	>10000 nM	4800 nM				
COc1ncccc1-c1nn(C)c2c1C(=O)N(c1cc(C)c3nnc(C)n3c1)C2c1ccc(Cl)cc1 (racemic) [Example 12, 6-(4-chlorophenyl)-5-(3,8-dimethyl-[1,2,4]triazolo[4,3-a]pyridin-6-yl)-3-(2-methoxypyridin-3-yl)-1-methyl-5,6-dihydropyrrolo[3,4-c]pyrazol-4(1H)-one]	17.5 nM	37.8 nM	40.5 nM	97.35 nM	106 nM	>10000 nM	12200 nM	42 nM	32 nM	31 nM	
Cc1cc(N2C(=O)c3c(C4CC4)nn(C)c3[C@H]2c2ccc(Cl)cc2)cc2c1nnn2C [Example 9, (R)-6-(4-chlorophenyl)-3-cyclopropyl-5-(1,4-dimethyl-1H-benzo[d][1,2,3]triazol-6-yl)-1-methyl-5,6-dihydropyrrolo[3,4-c]pyrazol-4(1H)-one]	2.57 nM	5.745 nM	4.41 nM	10.76 nM	14.3 nM	>10000 nM	3200 nM				
COc1ncccc1-c1n[nH]c2c1C(=O)N(c1cc(C)c3nnc(C)n3c1)C2c1ccc(Cl)cc1 (stereo not drawn) [Example 10, 6-(4-chlorophenyl)-5-(3,8-dimethyl-[1,2,4]triazolo[4,3-a]pyridin-6-yl)-3-(2-methoxypyridin-3-yl)-5,6-dihydropyrrolo[3,4-c]pyrazol-4(1H)-one]	34.5 nM	64.3 nM	60.4 nM	136.8 nM	135 nM	>10000 nM		48 nM	30 nM	45 nM	> 37000 nM
COc1ncccc1-c1n[nH]c2c1C(=O)N(c1cc(C)c3nnc(C)n3c1)[C@@H]2c1ccc(Cl)cc1 [Example 11, (R)-6-(4-chlorophenyl)-5-(3,8-dimethyl-[1,2,4]triazolo[4,3-a]pyridin-6-yl)-3-(2-methoxypyridin-3-yl)-5,6-dihydropyrrolo[3,4-c]pyrazol-4(1H)-one]	9.55 nM	17.4 nM	28.2 nM	42.8 nM	98.4 nM	>10000 nM	> 37000 nM	46 nM	42 nM	37 nM	
COc1ncccc1-c1nn(C)c2c1C(=O)N(c1cc(C)c3nnc(C)n3c1)[C@@H]2c1ccc(Cl)cc1 [Example 13, (R)-6-(4-chlorophenyl)-5-(3,8-dimethyl-[1,2,4]triazolo[4,3-a]pyridin-6-yl)-3-(2-methoxypyridin-3-yl)-1-methyl-5,6-dihydropyrrolo[3,4-c]pyrazol-4(1H)-one]	14.2 nM	29.8 nM	28.4 nM	64.65 nM	96.5 nM	>10000 nM	5400 nM	34 nM	24 nM	22 nM	
